# From US9751869B2, “LXR modulators” (BRISTOL-MYERS SQUIBB COMPANY, priority 2013, dated 2017)
# Target: T1, LXRβ (Homo sapiens, UniProt P55055)
# T1 construct: Co-transfection expression plasmids, comprising full-length LXRα (pCMX-h LXRα or LXRβ (pCMX-hLXRβ)); expressed in transfected cells; host or cells: CV-1 African green monkey kidney cells, transient transfection with pCMX-hLXRβ
# T1 sequence (P55055 1-460): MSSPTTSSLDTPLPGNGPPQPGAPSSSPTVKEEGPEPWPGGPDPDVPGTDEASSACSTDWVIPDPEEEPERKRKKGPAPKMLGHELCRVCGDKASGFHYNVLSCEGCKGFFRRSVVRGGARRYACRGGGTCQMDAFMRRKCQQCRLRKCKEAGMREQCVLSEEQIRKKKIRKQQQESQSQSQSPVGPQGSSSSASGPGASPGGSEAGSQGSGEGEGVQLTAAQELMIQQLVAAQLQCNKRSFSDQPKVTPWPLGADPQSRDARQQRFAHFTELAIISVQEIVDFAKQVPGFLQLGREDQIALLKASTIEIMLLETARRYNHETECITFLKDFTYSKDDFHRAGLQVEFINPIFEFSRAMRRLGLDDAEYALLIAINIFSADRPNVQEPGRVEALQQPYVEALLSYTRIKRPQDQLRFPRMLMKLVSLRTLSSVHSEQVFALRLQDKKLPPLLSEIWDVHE
# T1 sequence (P19793 1-462 partner): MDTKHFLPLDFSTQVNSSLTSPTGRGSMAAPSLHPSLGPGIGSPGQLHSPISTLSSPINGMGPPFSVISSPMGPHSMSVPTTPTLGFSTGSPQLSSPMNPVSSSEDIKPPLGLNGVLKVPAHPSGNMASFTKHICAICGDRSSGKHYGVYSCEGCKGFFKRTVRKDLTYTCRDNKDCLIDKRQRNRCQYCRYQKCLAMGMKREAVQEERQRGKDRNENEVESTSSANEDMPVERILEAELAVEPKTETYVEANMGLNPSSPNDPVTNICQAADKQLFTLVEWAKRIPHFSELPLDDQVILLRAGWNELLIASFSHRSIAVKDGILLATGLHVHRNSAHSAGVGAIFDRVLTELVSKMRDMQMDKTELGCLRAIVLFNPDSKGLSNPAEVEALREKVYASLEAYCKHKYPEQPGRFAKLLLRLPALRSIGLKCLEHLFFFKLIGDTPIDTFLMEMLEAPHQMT
# Assay: LXR/LXRE co-transfection assay (luciferase reporter) in CV-1 cells, LXRβ
# Format: cell-based
# Conditions: for EC50: CV-1 cells transfected with pCMX-hLXRβ and LXREx1-Tk-Luciferase, 20 hours incubation, read-out: LXRbeta agonism EC50; for Emax: read-out: LXRbeta % EFFICACY
# In short: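 CV-1 cells transiently co-transfected with full-length human LXRβ, LXRE-Tk-luciferase reporter and β-galactosidase control, then exposed to compound (≤0.5% DMSO) for 20 h at 37 °C before luminescence read. EC50 from 10-point, half-log dose curves; efficacy relative to the sulfonamide high control, means of 2–3 experiments.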
# [1] = CV-1 cells, relative to maximum response of high control N-(3-((4-fluorophenyl)-(naphthalene-2-sulfonyl)amino)propyl)-2,2-dimethylpropionamide
SMILES,EC50 [nM],Emax [1] [%],LXRbeta % EFFICACY [1] [%]
"Cn1nc(C(=O)NCC(F)(F)F)cc1-c1ccc(-c2cccc(S(C)(=O)=O)c2)cc1-n1nncc1-c1ccc(OC(F)(F)F)cc1 [Example 39, 1-methyl-5-[3′-(methylsulfonyl)-3-(5-{4-[(trifluoromethyl)oxy]phenyl}-1H-1,2,3-triazol-1-yl)biphenyl-4-yl]-N-(2,2,2-trifluoroethyl)-1H-pyrazole-3-carboxamide]",776,79,–
"Cc1nc(-c2ccc(Cl)cc2Cl)c(-c2cc(-c3cccc(S(C)(=O)=O)c3)ccc2-n2ccc(C(F)(F)F)n2)o1 [Example 337, 4-(2,4-dichlorophenyl)-2-methyl-5-(3′-(methylsulfonyl)-4-(3-(trifluoromethyl)-1H-pyrazol-1-yl)biphenyl-3-yl)oxazole]",178,77,–
"CNS(=O)(=O)c1cccc(-c2ccc(-n3cc(Cl)c(C(F)(F)F)n3)c(-c3oc(C)nc3-c3ccc(OC(F)(F)F)cc3)c2)c1 [Example 444, 4′-(4-chloro-3-(trifluoromethyl)-1H-pyrazol-1-yl)-N-methyl-3′-(2-methyl-4-(4-(trifluoromethoxy)phenyl)oxazol-5-yl)-[1,1′-biphenyl]-3-sulfonamide]",76,63,–
"Cc1nc(-c2ccc3c(c2)OC(F)(F)O3)c(-c2cc(-c3cc(F)c(CO)c(S(C)(=O)=O)c3)ccc2-c2cc(C(F)(F)C(=O)NCC(N)=O)nn2C)o1 [Example 89, N-(2-amino-2-oxoethyl)-2-(5-(3-(4-(2,2-difluorobenzo[d][1,3]dioxol-5-yl)-2-methyloxazol-5-yl)-3′-fluoro-4′-(hydroxymethyl)-5′-(methylsulfonyl)biphenyl-4-yl)-1-methyl-1H-pyrazol-3-yl)-2,2-difluoroacetamide]",4780,37,–
"Cc1nc(-c2ccc3c(c2)OC(F)(F)O3)c(-c2cc(-c3cc(F)c(CO)c(S(C)(=O)=O)c3)ccc2-c2cc(C(C)OC(N)=O)nn2C)o1 (centres unmarked) [Example 131, 1-(5-(3-(4-(2,2-difluorobenzo[d][1,3]dioxol-5-yl)-2-methyloxazol-5-yl)-3′-fluoro-4′-(hydroxymethyl)-5′-(methylsulfonyl)-[1,1′-biphenyl]-4-yl)-1-methyl-1H-pyrazol-3-yl)ethyl carbamate]",178,47,–
"Cc1nc(-c2ccc(OC(F)(F)F)cc2)c(-c2cc(-c3cccc(S(C)(=O)=O)c3)ccc2-n2ccc(C(C)O)n2)o1 (single isomer, unassigned) [Example 367, 1-(1-(3-(2-methyl-4-(4-(trifluoromethoxy)phenyl)oxazol-5-yl)-3′-(methylsulfonyl)-[1,1′-biphenyl]-4-yl)-1H-pyrazol-3-yl)ethanol]",264,55,–
"Cc1nc(-c2ccc3c(c2)OC(F)(F)O3)c(-c2cc(-c3cc(F)c(CO)c(S(C)(=O)=O)c3)ccc2-n2cc(Cl)c(C(F)(F)F)n2)o1 [Example 420, (4′-(4-chloro-3-(trifluoromethyl)-1H-pyrazol-1-yl)-3′-(4-(2,2-difluorobenzo[d][1,3]dioxol-5-yl)-2-methyloxazol-5-yl)-3-fluoro-5-(methylsulfonyl)-[1,1′-biphenyl]-4-yl) methanol]",7,74,–
"CS(=O)(=O)c1cccc(-c2ccc(-n3ccc(C(F)(F)F)n3)c(-c3nc(C4CC4)oc3-c3ccc(OC(F)(F)F)cc3)c2)c1 [Example 403, 2-cyclopropyl-4-(3′-(methylsulfonyl)-4-(3-(trifluoromethyl)-1H-pyrazol-1-yl)biphenyl-3-yl)-5-(4-(trifluoromethoxy)phenyl)oxazole]",82,62,–
"Cc1nc(-c2ccc(OC(F)(F)F)cc2)c(-c2cc(-c3ccc(CO)c(S(C)(=O)=O)c3)ccc2-n2nc(C(F)(F)F)cc2C)o1 [Example 333, (4′-(5-methyl-3-(trifluoromethyl)-1H-pyrazol-1-yl)-3′-(2-methyl-4-(4-(trifluoromethoxy)phenyl)oxazol-5-yl)-3-(methylsulfonyl)biphenyl-4-yl)methanol]",35,69,–
"Cc1nc(-c2cc(-c3ccc(CO)c(S(C)(=O)=O)c3)ccc2-n2nc(C(F)(F)F)cc2C)c(-c2ccc(OC(F)(F)F)cc2)o1 [Example 387, (4′-(5-methyl-3-(trifluoromethyl)-1H-pyrazol-1-yl)-3′-(2-methyl-5-(4-(trifluoromethoxy)phenyl)oxazol-4-yl)-3-(methylsulfonyl)biphenyl-4-yl)methanol]",82,79,–
"Cc1nc(-c2ccc(OC(F)(F)F)cc2)c(-c2cc(-c3cc(F)c(CO)c(S(C)(=O)=O)c3)ccc2-n2ccc(C(N)=O)n2)o1 [Example 320, 1-(3′-fluoro-4′-(hydroxymethyl)-3-(2-methyl-4-(4-(trifluoromethoxy)phenyl)oxazol-5-yl)-5′-(methylsulfonyl)biphenyl-4-yl)-1H-pyrazole-3-carboxamide]",472,58,–
"Cc1nc(-c2ccc(OC(F)F)c(F)c2)c(-c2cc(-c3cc(F)c(CO)c(S(C)(=O)=O)c3)ccc2-c2cc(C(F)(F)CO)nn2C)o1 [Example 77, 2-(5-(3-(4-(4-(difluoromethoxy)-3-fluorophenyl)-2-methyloxazol-5-yl)-3′-fluoro-4′-(hydroxymethyl)-5′-(methylsulfonyl)biphenyl-4-yl)-1-methyl-1H-pyrazol-3-yl)-2,2-difluoroethanol]",30,86,–
"Cc1nc(-c2ccc3c(c2)OC(F)(F)O3)c(-c2cc(-c3cc(F)c(CO)c(S(C)(=O)=O)c3)ccc2-c2cc(C(F)(F)C(=O)N3CCCC3)nn2C)o1 [Example 83, 2-(5-(3-(4-(2,2-difluorobenzo[d][1,3]dioxol-5-yl)-2-methyloxazol-5-yl)-3′-fluoro-4′-(hydroxymethyl)-5′-(methylsulfonyl)-[1,1′-biphenyl]-4-yl)-1-methyl-1H-pyrazol-3-yl)-2,2-difluoro-1-(pyrrolidin-1-yl)ethanone]",497,62,–
"Cc1cc(C(F)(F)F)n(-c2ccc(-c3cccc(S(C)(=O)=O)c3)cc2-c2nc(C)oc2-c2ccc(OC(F)F)cc2)n1 [Example 393, 5-(4-(difluoromethoxy)phenyl)-2-methyl-4-(4-(3-methyl-5-(trifluoromethyl)-1H-pyrazol-1-yl)-3′-(methylsulfonyl)biphenyl-3-yl)oxazole]",744,40,–
"Cc1nc(-c2ccc(OC(F)(F)F)cc2)c(-c2cc(-c3cccc(S(C)(=O)=O)c3)ccc2-n2nc(C(F)(F)F)cc2C2CC2)o1 [Example 324, 5-(4-(5-cyclopropyl-3-(trifluoromethyl)-1H-pyrazol-1-yl)-3′-(methylsulfonyl)biphenyl-3-yl)-2-methyl-4-(4-(trifluoromethoxy)phenyl)oxazole]",1230,44,–
"Cc1nc(-c2ccc3c(c2)OC(F)(F)O3)c(-c2cc(-c3cc(F)c(CO)c(S(C)(=O)=O)c3)ccc2-c2cc(C(C)OC(N)=O)nn2C)o1 (centres unmarked) [Example 132, 1-(5-(3-(4-(2,2-difluorobenzo[d][1,3]dioxol-5-yl)-2-methyloxazol-5-yl)-3′-fluoro-4′-(hydroxymethyl)-5′-(methylsulfonyl)-[1,1′-biphenyl]-4-yl)-1-methyl-1H-pyrazol-3-yl)ethyl carbamate]",157,–,49
"CNS(=O)(=O)c1cccc(-c2ccc(-n3cc(Cl)c(C(F)(F)F)n3)c(-c3oc(C)nc3-c3cnc(OC)nc3)c2)c1 [Example 445, 4′-(4-chloro-3-(trifluoromethyl)-1H-pyrazol-1-yl)-3′-(4-(2-methoxypyrimidin-5-yl)-2-methyloxazol-5-yl)-N-methyl-[1,1′-biphenyl]-3-sulfonamide]",170,63,–
Cc1nc(-c2ccc(OC(F)(F)F)cc2)c(-c2cc(-c3cccc(S(C)(=O)=O)c3)ccc2-c2cc(C(=O)NCC(C)(C)O)nn2C)o1 [Example 124],769,24,–
"Cc1nc(-c2cc(-c3ccc(CO)c(S(C)(=O)=O)c3)ccc2-n2nc(C(F)(F)F)cc2C)c(-c2ccc(OC(F)F)cc2)o1 [Example 392, (3′-(5-(4-(difluoromethoxy)phenyl)-2-methyloxazol-4-yl)-4′-(5-methyl-3-(trifluoromethyl)-1H-pyrazol-1-yl)-3-(methylsulfonyl)biphenyl-4-yl)methanol]",12,71,–
